According to PubChem BioAssay (NCI):
Where “and” joins values, the source holds several entries; their conditions need not be identical. Equal entries are not always repeated.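 These data come from cells grown in 96-well plates and exposed to compound for 48 hours at five concentrations. GI50 marks 50% less growth. TGI: total growth inhibition.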

Assays:
Assay in all cases: NCI tumour cell line growth inhibition, 48 h
786-0 renal = test system: 786-0 renal
EKVX NSCLC = test system: EKVX NSCLC
HCC-2998 colon = test system: HCC-2998 colon
IGROV1 ovarian = test system: IGROV1 ovarian
M14 melanoma = test system: M14 melanoma
NCI-H522 lung = test system: NCI-H522 lung
SNB-19 CNS = test system: SNB-19 CNS
SW-620 colon = test system: SW-620 colon
UACC-257 melanoma = test system: UACC-257 melanoma
SNB-75 CNS = test system: SNB-75 CNS

Compound | TGI (786-0 renal) | TGI (EKVX NSCLC) | TGI (HCC-2998 colon) | TGI (IGROV1 ovarian) | TGI (M14 melanoma) | TGI (NCI-H522 lung) | TGI (SNB-19 CNS) | TGI (SW-620 colon) | TGI (UACC-257 melanoma) | GI50 (786-0 renal) | GI50 (EKVX NSCLC) | GI50 (HCC-2998 colon) | GI50 (IGROV1 ovarian) | GI50 (M14 melanoma) | GI50 (NCI-H522 lung) | GI50 (SNB-19 CNS) | GI50 (SNB-75 CNS) | TGI (SNB-75 CNS) | GI50 (SW-620 colon) | GI50 (UACC-257 melanoma)
CCOC(=O)c1cc(/C=C/C(C)=C/C(=O)OC)oc1-c1ccccc1 | > 100 µM | > 100 µM | > 100 µM | > 100 µM | > 100 µM | > 100 µM | > 100 µM | > 100 µM | > 100 µM | – | – | – | – | – | – | – | – | – | – | –
COc1ccc(C[n+]2c3ccccc3n3c4ccc(N)cc4ccc32)c(OC)c1OC | > 100 µM | 58.9 µM | 24.7 µM | 40 µM | 33.3 µM | 15.7 µM | 15.8 µM | 36.5 µM | 8.02 µM | 34.9 µM | 3.08 µM | 4 µM | 4.58 µM | 14.9 µM | 2.08 µM | 1.42 µM | 1.45 µM | 10.8 µM | 8.39 µM | 2.56 µM
Cc1nc2ccccc2c(=O)n1/N=C(\N=Nc1cc(Cl)ccc1Cl)c1cccc(-c2ccco2)c1 | > 100 µM | > 100 µM | > 100 µM | > 100 µM | > 100 µM | – | > 100 µM | > 100 µM | > 100 µM | – | – | – | – | – | – | – | – | > 100 µM | – | –
NC1=NC(c2ccc(Cl)cc2)N(c2ccc(S(=O)(=O)Nc3ncccn3)cc2)C(N)=N1 (stereo not drawn) | > 100 µM | > 100 µM | – | > 100 µM | > 100 µM | > 100 µM | > 100 µM | > 100 µM | > 100 µM | – | – | – | – | – | – | – | – | > 100 µM | – | –
Cc1oc2nc[nH]c(=O)c2c1C(=O)/C=C/c1ccc(Cl)cc1 | 10.3 µM | 15.9 µM | 3.65 µM | 10.8 µM | 6.72 µM | 5.74 µM | 13.7 µM | 7.19 µM | 12.7 µM | 3.02 µM | 2.37 µM | 1.79 µM | 1.82 µM | 1.96 µM | 1.79 µM | 3.28 µM | – | – | 2.53 µM | 2.72 µM
CCN(CC)C(=O)CC1=C(C)/C(=C/c2[nH]c(-c3ccc[nH]3)cc2OC)N=C1C | 3.36 µM | 38.7 µM | – | 15.6 µM | 0.607 µM | 14 µM | > 100 µM | 13.4 µM | 4.85 µM | 0.549 µM | 0.452 µM | – | 0.43 µM | 0.227 µM | 0.456 µM | 4.1 µM | 0.307 µM | 3.35 µM | 0.334 µM | 1.03 µM
COc1cc(NS(C)(=O)=O)ccc1Nc1c2ccccc2nc2c(C)cccc12 | 0.923 µM and 1.34 µM | – | 6.32 µM and 5.51 µM | 24.1 µM and 19.9 µM | 13.9 µM and 11.1 µM | 12.2 µM and 2.98 µM | 15.5 µM and 15.9 µM | 3.4 µM and 4 µM | 12.1 µM and 13.5 µM | 0.16 µM and 0.17 µM | – | 0.645 µM and 0.695 µM | 0.541 µM and 0.438 µM | 0.198 µM and 0.129 µM | 0.662 µM and 0.219 µM | 0.196 µM and 0.23 µM | 0.143 µM and 0.316 µM | 4.31 µM and 10.7 µM | 0.0825 µM and 0.123 µM | 0.792 µM and 0.639 µM
O=C(CC(=O)c1ccc([N+](=O)[O-])cc1)C(=O)Nc1nccs1 | > 100 µM | > 100 µM | > 100 µM | > 100 µM | > 100 µM | > 100 µM | > 100 µM | > 100 µM | – | – | – | – | – | – | – | – | – | > 100 µM | – | –
O=C(CCN1CCOCC1)Nc1ccc(F)cc1F | > 100 µM | > 100 µM | – | > 100 µM | > 100 µM | > 100 µM | > 100 µM | > 100 µM | > 100 µM | – | – | – | – | – | – | – | – | – | – | –
